Where two headings read alike, the source gives them in different places.
Experiments:
Assay type in all cases: cell-based
BaF3_ASV = test: Cell growth inhibition assay (CellTiter-Glo), BaF3_ASV; conditions: 72 h; Table 6; BaF3_ASV cells, three days, CellTiter-Glo; read-out: BaF3_ASV GI50
[1] = target: T1, BaF3_ASV (EGFR_A776inASV) (Homo sapiens, UniProt P00533, DUP767-769); test: EGFR degradation assay (western blot), BaF3_ASV cells; conditions: BaF3_ASV cells, compounds 24 h, western blot; read-out: BaF3_ASV DC50
T1 construct: expressed in transfected cells; host or cells: Ba/F3 (engineered)
Outline: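 Cells seeded overnight, then exposed to compounds for 24 h; lysates run on western blot, EGFR probed with tubulin loading control and fluorescent secondary detection. DC50 = concentration giving 50% EGFR degradation.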

HCC827_DTC = test: Cell growth inhibition assay (CellTiter-Glo), HCC827_DTC; conditions: 72 h; Table 8; HCC827 expressing human EGFR Del19/T790M/C797S, endogenous EGFR knockout, three days
Method: (§1) HCC827_LTC and HCC827_DTC cell lines were generated by first transducing HCC827 cells (ATCC) with lentiviral particles expressing codon-optimized human EGFR L858R/T790M/C797S (LTC) mutant or Del19/T790M/C797S (DTC) mutant, and then selecting under 5 μg/ml puromycin treatment for a week. The endogenous EGFR alleles were subsequently abolished using the Alt-R™ CRISPR-Cas9 technology (Integrated DNA Technologies). Single clones of HCC827_LTC and HCC827_DTC were selected and validated for endogenous EGFR knockout using Sanger sequencing.
(§2) Cells were seeded in a 96-well plate (Corning 3610) with 90 μL of culture medium per well, and plates were incubated at 37° C. overnight. A 1,000× DMSO stock solution of the desired compound was prepared the following day. A compound dilution plate was prepared by diluting the stock solution 1:100 in the corresponding cell culture medium, 10 μL of the diluted compound solution was added to each 96-well plate well containing the seeded cells. Then, the cells were cultured at 37° C. for three days following compound treatment, 100 μL of CellTiter-Glo reagents (Promega G7573) was added to each well of the 96-well plate. The content of the wells was mixed by shaking continuously for 10 min, and luminescence was measured using Envision (PerkinElmer). The data were analyzed with GraphPad Prism 9 (see FIG. 50).
(§3) Table 6, Table 7, and Table 8 list the cell growth inhibition results, where Gls0 represents the compound concentration to cause 50% cell growth inhibition in comparison with DMSO.

BaF3_DTC = test: Cell growth inhibition assay (CellTiter-Glo), BaF3_DTC; conditions: 72 h; Table 6; BaF3_DTC cells, three days, CellTiter-Glo; read-out: BaF3_DTC GI50
A431 = test: Cell growth inhibition assay (CellTiter-Glo), A431; conditions: Homo sapiens, A-431, 72 h, A431 cells, three days, read-out: A431 GI50
Outline: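 Cells were plated in 96-well plates (Corning 3610) at 90 μL of culture medium per well and incubated overnight at 37° C. The next day, a 1,000× DMSO compound stock was diluted 1:100 in cell culture medium, and 10 μL was added per well. After shaking for 10 min, luminescence was read on an Envision (PerkinElmer) reader.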

HCC827_LTC = test: Cell growth inhibition assay (CellTiter-Glo), HCC827_LTC; conditions: 72 h; Table 8; HCC827 expressing human EGFR L858R/T790M/C797S, endogenous EGFR knockout, three days
Method: as §1, §2, §3

HCC827 = test: Cell growth inhibition assay (CellTiter-Glo), HCC827; conditions: Homo sapiens, 72 h, Table 8, HCC827 cells, three days
Method: as §1, §2, §3

NCI-H2073 = test: Cell growth inhibition assay (CellTiter-Glo), NCI-H2073; conditions: 72 h; Table 8; NCI-H2073 cells, three days
Method: as §2, with “Then, the cells were cultured at 37° C. for three days following compound treatment, 100 μL of CellTiter-Glo reagents (Promega G7573) was added to each well of the 96-well plate.” left out
as §3

T1 sequence (P00533 with tags, fused parts or gaps DUP767-769): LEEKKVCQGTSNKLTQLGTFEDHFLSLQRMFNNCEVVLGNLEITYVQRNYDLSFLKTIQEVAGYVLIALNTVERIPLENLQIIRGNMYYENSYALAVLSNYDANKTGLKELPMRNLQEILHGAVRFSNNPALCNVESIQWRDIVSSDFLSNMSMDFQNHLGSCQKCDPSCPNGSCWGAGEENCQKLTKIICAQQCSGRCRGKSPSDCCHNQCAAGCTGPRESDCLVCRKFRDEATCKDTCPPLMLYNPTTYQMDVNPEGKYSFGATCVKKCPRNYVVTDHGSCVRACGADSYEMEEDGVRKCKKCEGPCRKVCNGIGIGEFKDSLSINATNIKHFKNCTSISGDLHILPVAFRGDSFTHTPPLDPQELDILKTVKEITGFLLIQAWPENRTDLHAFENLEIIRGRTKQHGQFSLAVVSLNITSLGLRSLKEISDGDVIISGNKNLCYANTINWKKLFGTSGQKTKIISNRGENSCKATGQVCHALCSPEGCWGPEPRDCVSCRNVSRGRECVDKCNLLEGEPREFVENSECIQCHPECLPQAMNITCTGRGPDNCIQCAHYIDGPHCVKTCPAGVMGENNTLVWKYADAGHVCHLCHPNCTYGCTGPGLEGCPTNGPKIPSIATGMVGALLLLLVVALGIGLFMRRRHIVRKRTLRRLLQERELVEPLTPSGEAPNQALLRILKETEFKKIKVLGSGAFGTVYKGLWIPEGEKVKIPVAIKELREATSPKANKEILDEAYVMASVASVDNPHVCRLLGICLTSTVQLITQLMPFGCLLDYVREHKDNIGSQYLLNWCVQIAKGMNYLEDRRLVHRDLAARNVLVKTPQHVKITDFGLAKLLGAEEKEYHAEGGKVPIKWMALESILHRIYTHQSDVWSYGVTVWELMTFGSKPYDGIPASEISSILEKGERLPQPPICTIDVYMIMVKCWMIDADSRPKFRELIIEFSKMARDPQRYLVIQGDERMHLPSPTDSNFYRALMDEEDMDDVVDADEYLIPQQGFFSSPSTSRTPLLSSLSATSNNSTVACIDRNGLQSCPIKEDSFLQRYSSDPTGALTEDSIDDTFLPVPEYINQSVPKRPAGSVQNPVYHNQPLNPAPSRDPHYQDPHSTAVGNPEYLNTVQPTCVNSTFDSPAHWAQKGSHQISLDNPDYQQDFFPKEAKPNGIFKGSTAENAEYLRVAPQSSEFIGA

Row | Compound | GI50 (HCC827_DTC) | GI50 (A431; Table 8) | GI50 (HCC827_LTC) | GI50 (HCC827) | GI50 (NCI-H2073) | GI50 (BaF3_ASV) | DC50 [1] | GI50 (BaF3_DTC) | GI50 (A431; Table 6, CellTiter-Glo)
1 | CCn1c(=O)n(C2CCC(=O)NC2=O)c2cccc(CCN3CCN(C4CCN(c5cc(OC)c(Nc6ncc(Br)c(Nc7ccc8nccnc8c7NS(C)(=O)=O)n6)cc5-c5cnn(C)c5)CC4)CC3)c21 (centres unmarked) [Compound 28, N-(6-((5-bromo-2-((4-(4-(4-(2-(1-(2,6-dioxopiperidin-3-yl)-3-ethyl-2-oxo-2,3-dihydro-1H-benzo[d]imidazol-4-yl)ethyl)piperazin-1-yl)piperidin-1-yl)-2-methoxy-5-(1-methyl-1H-pyrazol-4-yl)phenyl)amino)pyrimidin-4-yl)amino)quinoxalin-5-yl)methanesulfonamide] | 4.42 nM | 150 nM | 1.03 nM | 0.52 nM | 340 nM | 56.3 nM | 93.6 nM | 15.8 nM | 271 nM
2 | COc1cc(N2CCC(N3CCN(c4ccc5c(c4)C(=O)N(C4CCC(=O)NC4=O)C5=O)CC3)CC2)c(-c2cnn(C)c2)cc1Nc1ncc(Br)c(Nc2ccc3nccnc3c2NS(C)(=O)=O)n1 (centres unmarked) [Compound 82, N-(6-((5-bromo-2-((4-(4-(4-(2-(2,6-dioxopiperidin-3-yl)-1,3-dioxoisoindolin-5-yl)piperazin-1-yl)piperidin-1-yl)-2-methoxy-5-(1-methyl-1H-pyrazol-4-yl)phenyl)amino)pyrimidin-4-yl)amino)quinoxalin-5-yl)methanesulfonamide] | 30.8 nM | > 3000 nM | 9.38 nM | 2.82 nM | > 3000 nM |  |  |  | 
3 | COc1cc(N2CCC(CN3CCN(c4ccc5c(c4)C(=O)N(C4CCC(=O)NC4=O)C5=O)CC3)CC2)c(-c2cnn(C)c2)cc1Nc1ncc(Br)c(Nc2ccc3nccnc3c2NS(C)(=O)=O)n1 (centres unmarked) [Compound 83, N-(6-((5-bromo-2-((4-(4-((4-(2-(2,6-dioxopiperidin-3-yl)-1,3-dioxoisoindolin-5-yl)piperazin-1-yl)methyl)piperidin-1-yl)-2-methoxy-5-(1-methyl-1H-pyrazol-4-yl)phenyl)amino)pyrimidin-4-yl)amino)quinoxalin-5-yl)methanesulfonamide] | 19.4 nM | > 3000 nM | 8.58 nM | 5.51 nM | > 3000 nM |  |  |  | 

The remaining compounds from weak to strong by GI50 (HCC827_DTC), led by results:

Row | GI50 (HCC827_DTC) | GI50 (A431; Table 8) | GI50 (HCC827_LTC) | GI50 (HCC827) | GI50 (NCI-H2073) | Compound | GI50 (BaF3_ASV) | DC50 [1] | GI50 (BaF3_DTC) | GI50 (A431; Table 6, CellTiter-Glo)
4 | 10.7 nM | > 3000 nM | 3.06 nM | 1.18 nM | > 3000 nM | COc1cc(N2CCN(CC3CCN(c4ccc5c(c4)C(=O)N(C4CCC(=O)NC4=O)C5=O)CC3)CC2)c(-c2cnn(C)c2)cc1Nc1ncc(Br)c(Nc2ccc3nccnc3c2NS(C)(=O)=O)n1 (centres unmarked) [Compound 84, N-(6-((5-bromo-2-((4-(4-((1-(2-(2,6-dioxopiperidin-3-yl)-1,3-dioxoisoindolin-5-yl)piperidin-4-yl)methyl)piperazin-1-yl)-2-methoxy-5-(1-methyl-1H-pyrazol-4-yl)phenyl)amino)pyrimidin-4-yl)amino)quinoxalin-5-yl)methanesulfonamide] |  |  |  | 
5 | 7.7 nM | > 3000 nM | 3.57 nM | 2.72 nM | > 3000 nM | COc1cc(N2CCC(N3CCN(CC4CCN(c5ccc6c(c5)C(=O)N(C5CCC(=O)NC5=O)C6=O)CC4)CC3)CC2)c(-c2cnn(C)c2)cc1Nc1ncc(Br)c(Nc2ccc3nccnc3c2NS(C)(=O)=O)n1 (centres unmarked) [Compound 85, N-(6-((5-bromo-2-((4-(4-(4-((1-(2-(2,6-dioxopiperidin-3-yl)-1,3-dioxoisoindolin-5-yl)piperidin-4-yl)methyl)piperazin-1-yl)piperidin-1-yl)-2-methoxy-5-(1-methyl-1H-pyrazol-4-yl)phenyl)amino)pyrimidin-4-yl)amino)quinoxalin-5-yl)methanesulfonamide] |  |  |  | 

From patent publication US20250002473A1, “QUINOXALINE DERIVED SULFONAMIDES WITH EGFR DEGRADATION ACTIVITIES AND THEIR USES THEREOF” (Accutar Biotechnology Inc., priority 2023, published 2025)
